Measured values: patent US12391683B2, “Therapeutic compounds and methods” (Actio Biosciences, Inc., priority 2022, dated 2025)

Key:
TRPA1 channels = biological target: T1, TRPA1 channels (Homo sapiens, UniProt O75762); test: TRP Family FLIPR Assay, TRPA1; type: cell-based; conditions: CHO cells
T1 construct: expressed in transfected cells; host or cells: CHO
Method: (§1) The compound of Example 5 was tested for selectivity against a panel of Human TRP family ion channels in a TRP Family FLIPR Assay as described below. • 1. TRPC3 channels (human TRPC3 variant 1 gene, expressed in HEK293 cells). • 2. TRPC4 channels (human TRPC4 gene, expressed in HEK293 cells). • 3. TRPC5 channels (human TRPC5 gene, expressed in HEK293 cells). • 4. TRPC6 channels (human TRPC6 gene, expressed in HEK293 cells). • 5. TRPM2 channels (human TRPM2 gene, transiently expressed in HEK293 cells). • 6. TRPM3 channels (human TRPM3 gene, transiently expressed in HEK293 cells). • 7. TRPM4 channels (human TRPM4 gene, expressed in CHO cells). • 8. […]
(§2) Data acquisition was performed via the FLIPR Control software supplied with the FLIPR System (MDS-AT) and data was analyzed using Microsoft Excel (Microsoft Corp., Redmond, WA) or GraphPad Prism. […]
(§3) [formula] where Base is the response at low concentrations of test article, Max is the maximum response at high concentrations, xhalf the EC50, or IC50, the concentration of test article producing either half-maximal activation or inhibition, and rate is the Hill coefficient. […] No assumptions about the fit parameters was made; the fit parameters were determined by the algorithm.
(§4) The effect of each test article was evaluated at eight (8) concentrations: 0.003, 0.01, 0.03, 0.1, 0.3, 1, 3 and 10 μM, n≤4 wells/concentration). […]

Hepatocytes [1] = test: Hepatocytes predicted clearance, mouse
Hepatocytes [2] = test: Hepatocytes predicted clearance, dog
Human TRPV4 = Human TRPV4 (Homo sapiens, UniProt Q9HBA0); test: TRP Family FLIPR Assay, TRPV4; type: cell-based; set-up: expressed in transfected cells; host or cells: CHO; conditions: CHO cells
Method: as §1, §2, §3, §4

Chain of Human TRPV4 (Q9HBA0 whole entry): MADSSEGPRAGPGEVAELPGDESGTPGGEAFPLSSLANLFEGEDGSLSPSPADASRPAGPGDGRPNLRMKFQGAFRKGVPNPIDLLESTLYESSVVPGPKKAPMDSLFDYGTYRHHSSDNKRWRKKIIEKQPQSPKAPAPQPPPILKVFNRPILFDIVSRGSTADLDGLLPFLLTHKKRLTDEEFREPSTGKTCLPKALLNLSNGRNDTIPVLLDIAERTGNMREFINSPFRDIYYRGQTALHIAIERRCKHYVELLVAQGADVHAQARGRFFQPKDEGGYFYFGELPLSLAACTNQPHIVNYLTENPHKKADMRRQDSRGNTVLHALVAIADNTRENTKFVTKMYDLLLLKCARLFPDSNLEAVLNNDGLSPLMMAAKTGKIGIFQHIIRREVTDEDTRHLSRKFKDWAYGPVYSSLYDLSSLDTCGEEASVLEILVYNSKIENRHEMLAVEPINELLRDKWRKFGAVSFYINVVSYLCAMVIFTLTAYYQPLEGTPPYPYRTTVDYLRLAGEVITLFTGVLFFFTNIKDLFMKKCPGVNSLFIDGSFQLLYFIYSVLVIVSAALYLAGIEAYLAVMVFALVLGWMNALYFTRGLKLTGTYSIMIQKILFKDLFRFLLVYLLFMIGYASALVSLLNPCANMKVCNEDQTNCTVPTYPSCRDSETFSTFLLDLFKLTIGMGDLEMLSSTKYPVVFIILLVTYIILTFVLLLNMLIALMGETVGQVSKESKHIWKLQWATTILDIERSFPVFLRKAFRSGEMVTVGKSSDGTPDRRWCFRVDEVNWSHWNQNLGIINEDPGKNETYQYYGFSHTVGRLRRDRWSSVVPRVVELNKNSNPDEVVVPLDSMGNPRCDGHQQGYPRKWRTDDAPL
T1 sequence (O75762 whole entry): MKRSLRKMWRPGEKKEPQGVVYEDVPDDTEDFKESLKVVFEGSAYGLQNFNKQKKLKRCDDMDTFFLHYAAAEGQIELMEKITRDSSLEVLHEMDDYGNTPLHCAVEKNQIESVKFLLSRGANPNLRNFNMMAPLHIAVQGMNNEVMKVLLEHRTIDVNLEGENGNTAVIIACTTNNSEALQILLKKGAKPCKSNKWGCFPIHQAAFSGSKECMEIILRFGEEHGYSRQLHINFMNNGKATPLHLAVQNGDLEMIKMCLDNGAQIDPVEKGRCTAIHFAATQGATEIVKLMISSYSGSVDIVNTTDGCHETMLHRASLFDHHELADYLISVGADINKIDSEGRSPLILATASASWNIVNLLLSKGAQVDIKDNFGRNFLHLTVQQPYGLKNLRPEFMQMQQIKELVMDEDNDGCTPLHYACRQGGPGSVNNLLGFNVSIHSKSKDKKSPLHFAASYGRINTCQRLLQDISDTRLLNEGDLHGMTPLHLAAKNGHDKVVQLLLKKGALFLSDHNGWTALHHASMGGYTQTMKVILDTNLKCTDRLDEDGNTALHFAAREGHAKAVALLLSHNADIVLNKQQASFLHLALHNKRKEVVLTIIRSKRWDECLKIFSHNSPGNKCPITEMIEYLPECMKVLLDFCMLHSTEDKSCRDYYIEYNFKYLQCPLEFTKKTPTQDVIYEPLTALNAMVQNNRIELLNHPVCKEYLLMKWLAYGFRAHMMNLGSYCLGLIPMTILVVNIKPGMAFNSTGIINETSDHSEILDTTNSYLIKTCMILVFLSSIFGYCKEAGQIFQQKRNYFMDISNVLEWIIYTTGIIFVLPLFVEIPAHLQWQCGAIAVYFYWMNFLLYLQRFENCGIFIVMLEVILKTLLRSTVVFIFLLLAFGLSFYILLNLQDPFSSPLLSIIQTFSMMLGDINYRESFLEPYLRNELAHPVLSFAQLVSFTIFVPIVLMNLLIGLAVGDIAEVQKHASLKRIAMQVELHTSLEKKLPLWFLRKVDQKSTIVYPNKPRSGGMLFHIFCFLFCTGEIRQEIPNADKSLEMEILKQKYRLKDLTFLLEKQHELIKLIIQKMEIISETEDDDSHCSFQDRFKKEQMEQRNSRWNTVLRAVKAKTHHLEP

SMILES: CC(C)(O)c1cnc(N2C[C@@]3(CC[C@@H](F)[C@](C)(Cn4cnc5ccc(C#N)cc54)C3)OC2=O)cn1 (single isomer, unassigned) [Example 5]
- EC50 (TRPA1 channels; agonist mode, vs EMAX of mustard oil 600 μM, read-out: EC50 hTRPA1): > 10 µM
- IC50 (TRPA1 channels; antagonist mode, activated with mustard oil 80 μM, 0.003-10 μM, read-out: IC50 hTRPA1): > 10 µM
- Hepatocytes predicted clearance in mouse (Hepatocytes [1]): 12.8 mL/min/kg
- Hepatocytes predicted clearance in dog (Hepatocytes [2]): 11 mL/min/kg
- EC50 (Human TRPV4; agonist mode, vs EMAX of GSK1016790A 3 μM, read-out: EC50 hTRPV4): > 10 µM
- IC50 (Human TRPV4; antagonist mode, activated with GSK1016790A 0.3 μM, 0.003-10 μM, read-out: IC50 hTRPV4): 0.014 µM
